Measured values from ChEMBL document CHEMBL1133151 (2000).
pIC50: −log10 of the molar value.

Tests used:
[1] = molecular target: T1, Voltage-gated L-type calcium channel (Rattus norvegicus, UniProt P22002+Q02485+P27732); test: Inhibition of L-type [Ca2+] channel (VSCC) in rat A7r5 vascular smooth muscle cells
[2] = molecular target: T2, Voltage-dependent N-type calcium channel subunit alpha-1B (Homo sapiens, UniProt Q00975); test: Inhibition of N-type calcium channel (VSCC) in IMR-32 at 10 uM
Target sequence in this assay (Q00975 whole entry): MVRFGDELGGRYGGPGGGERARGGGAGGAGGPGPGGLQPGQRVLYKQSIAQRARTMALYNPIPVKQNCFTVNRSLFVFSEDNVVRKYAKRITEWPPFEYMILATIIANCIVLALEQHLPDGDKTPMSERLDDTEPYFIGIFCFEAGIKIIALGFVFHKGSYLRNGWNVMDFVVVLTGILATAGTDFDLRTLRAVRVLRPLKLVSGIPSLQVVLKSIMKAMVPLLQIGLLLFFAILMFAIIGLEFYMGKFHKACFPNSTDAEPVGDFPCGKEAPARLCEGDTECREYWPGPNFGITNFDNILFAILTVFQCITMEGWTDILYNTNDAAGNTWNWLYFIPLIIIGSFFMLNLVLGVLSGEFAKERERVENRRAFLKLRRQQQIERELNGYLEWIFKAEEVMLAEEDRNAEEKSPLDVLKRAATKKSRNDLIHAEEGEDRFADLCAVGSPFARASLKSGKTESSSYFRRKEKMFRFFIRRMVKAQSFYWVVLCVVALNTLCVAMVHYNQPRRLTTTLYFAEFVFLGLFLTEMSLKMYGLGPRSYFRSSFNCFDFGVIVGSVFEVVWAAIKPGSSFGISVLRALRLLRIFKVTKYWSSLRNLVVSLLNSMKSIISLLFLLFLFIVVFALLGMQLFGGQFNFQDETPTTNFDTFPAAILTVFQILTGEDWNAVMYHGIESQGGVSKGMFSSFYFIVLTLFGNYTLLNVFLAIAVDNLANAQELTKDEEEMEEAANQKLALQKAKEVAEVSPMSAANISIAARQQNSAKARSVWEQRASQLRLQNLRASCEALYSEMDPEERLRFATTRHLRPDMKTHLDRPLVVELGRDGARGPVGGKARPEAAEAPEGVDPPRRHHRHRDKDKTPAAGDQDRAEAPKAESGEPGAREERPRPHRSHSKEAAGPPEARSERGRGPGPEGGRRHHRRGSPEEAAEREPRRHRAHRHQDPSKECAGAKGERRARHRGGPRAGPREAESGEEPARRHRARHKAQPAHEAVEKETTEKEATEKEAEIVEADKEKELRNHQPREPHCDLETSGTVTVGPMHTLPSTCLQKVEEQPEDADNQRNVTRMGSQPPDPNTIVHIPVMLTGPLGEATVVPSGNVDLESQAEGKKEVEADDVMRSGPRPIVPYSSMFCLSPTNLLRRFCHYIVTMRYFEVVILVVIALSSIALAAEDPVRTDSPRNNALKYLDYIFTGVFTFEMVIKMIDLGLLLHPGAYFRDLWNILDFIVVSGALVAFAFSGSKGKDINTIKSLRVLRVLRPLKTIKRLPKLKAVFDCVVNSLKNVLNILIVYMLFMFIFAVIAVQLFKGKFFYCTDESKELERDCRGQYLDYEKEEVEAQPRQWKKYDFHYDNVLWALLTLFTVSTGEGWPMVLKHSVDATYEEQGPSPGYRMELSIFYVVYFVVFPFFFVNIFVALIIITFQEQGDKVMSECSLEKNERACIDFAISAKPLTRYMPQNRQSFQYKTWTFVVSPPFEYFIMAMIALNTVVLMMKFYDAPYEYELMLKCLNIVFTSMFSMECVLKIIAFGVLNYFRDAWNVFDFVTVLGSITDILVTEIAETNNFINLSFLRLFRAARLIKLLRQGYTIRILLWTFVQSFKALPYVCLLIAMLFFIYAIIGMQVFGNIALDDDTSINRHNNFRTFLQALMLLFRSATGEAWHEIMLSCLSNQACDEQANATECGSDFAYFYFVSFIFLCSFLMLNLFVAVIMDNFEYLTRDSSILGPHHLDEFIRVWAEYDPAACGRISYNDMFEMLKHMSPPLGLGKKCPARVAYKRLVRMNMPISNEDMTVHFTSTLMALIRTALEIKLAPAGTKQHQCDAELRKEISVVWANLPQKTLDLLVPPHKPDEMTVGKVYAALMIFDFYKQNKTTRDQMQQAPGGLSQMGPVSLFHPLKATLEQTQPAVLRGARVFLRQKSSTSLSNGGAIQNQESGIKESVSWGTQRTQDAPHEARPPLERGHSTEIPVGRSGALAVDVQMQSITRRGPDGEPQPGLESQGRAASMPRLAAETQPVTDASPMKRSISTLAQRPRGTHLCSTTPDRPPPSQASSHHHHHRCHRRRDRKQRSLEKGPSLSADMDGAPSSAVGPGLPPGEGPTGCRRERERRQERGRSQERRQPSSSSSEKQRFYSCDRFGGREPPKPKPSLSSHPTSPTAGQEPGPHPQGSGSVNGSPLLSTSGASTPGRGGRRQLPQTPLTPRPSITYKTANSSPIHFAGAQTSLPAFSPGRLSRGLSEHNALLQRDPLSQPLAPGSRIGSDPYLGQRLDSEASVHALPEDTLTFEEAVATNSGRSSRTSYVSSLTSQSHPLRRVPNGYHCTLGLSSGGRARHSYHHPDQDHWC

[3] = molecular target: T2, Voltage-dependent N-type calcium channel subunit alpha-1B; test: Inhibition of N-type calcium channel (VSCC) in IMR-32 at 10 uM
Target sequence in this assay (Q00975 whole entry, looked up): as the sequence (Q00975 whole entry) above

[4] = molecular target: T1, Voltage-gated L-type calcium channel; test: Inhibition of L-type [Ca2+] channel (VSCC) in rat A7r5 vascular smooth muscle cells; remark: listed apart in the source

Compound	IC50 [1] [µM]	pIC50 [2]	inhibition [3] [%]	Inhibition [4] [%]
CC(C)Oc1cc(OCCc2ccc(C(=N)N)cc2)cc(OCc2ccccc2CCc2ccc(O)cc2)c1	4.2	5.48	–	–
CC(C)CCOc1cc(OCCCc2ccccc2OCCCc2ccc(O)cc2)cc(OCCc2ccc(C(=N)N)cc2)c1	–	–	19	69
CC(C)Oc1cc(OCCc2ccc(C(=N)N)cc2)cc(OCc2ccccc2CCc2cccc(O)c2)c1	3	5.57	–	–
